Laboratory results: article PMC4770715, “LIM kinase inhibitors disrupt mitotic microtubule organization and impair tumor cell proliferation” (Oncotarget, 2015)

Columns and labels:
Test in all cases: biochemical
Parameters in all cases: KINOMEscan active-site competition binding, percent of control (100 = no competition)
Settings in all cases: competition binding, percent control
[1] = target: PDGFRA (Homo sapiens, UniProt P16234)
[2] = target: MYO3A (Homo sapiens, UniProt Q8NEV4)
[3] = target: SBK1 (Homo sapiens, UniProt Q52WX2)
[4] = target: SRMS (Homo sapiens, UniProt Q9H3Y6)
Chain of SRMS (Q9H3Y6 whole entry): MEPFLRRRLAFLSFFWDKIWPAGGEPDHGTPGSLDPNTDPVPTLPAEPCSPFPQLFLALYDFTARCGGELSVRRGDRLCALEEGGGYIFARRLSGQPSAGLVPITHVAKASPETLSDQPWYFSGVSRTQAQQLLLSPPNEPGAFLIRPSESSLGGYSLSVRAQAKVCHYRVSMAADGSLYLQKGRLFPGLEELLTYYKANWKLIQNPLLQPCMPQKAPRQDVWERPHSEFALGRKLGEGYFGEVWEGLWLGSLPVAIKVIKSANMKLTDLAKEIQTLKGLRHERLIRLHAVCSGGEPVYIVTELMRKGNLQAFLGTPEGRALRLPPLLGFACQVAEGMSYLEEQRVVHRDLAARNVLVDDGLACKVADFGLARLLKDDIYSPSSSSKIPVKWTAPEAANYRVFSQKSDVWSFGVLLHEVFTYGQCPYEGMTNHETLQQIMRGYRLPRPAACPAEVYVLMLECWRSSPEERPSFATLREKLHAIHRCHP

[5] = target: CLK3 (Homo sapiens, UniProt P49761)
[6] = target: PKN1 (Homo sapiens, UniProt Q16512)
[7] = target: MAP4K3 (Homo sapiens, UniProt Q8IVH8)
[8] = target: RIPK4 (Homo sapiens, UniProt P57078)
[9] = target: CAMK1D (Homo sapiens, UniProt Q8IU85)
[10] = target: BRSK2 (Homo sapiens, UniProt Q8IWQ3)
Chain of BRSK2 (Q8IWQ3 whole entry): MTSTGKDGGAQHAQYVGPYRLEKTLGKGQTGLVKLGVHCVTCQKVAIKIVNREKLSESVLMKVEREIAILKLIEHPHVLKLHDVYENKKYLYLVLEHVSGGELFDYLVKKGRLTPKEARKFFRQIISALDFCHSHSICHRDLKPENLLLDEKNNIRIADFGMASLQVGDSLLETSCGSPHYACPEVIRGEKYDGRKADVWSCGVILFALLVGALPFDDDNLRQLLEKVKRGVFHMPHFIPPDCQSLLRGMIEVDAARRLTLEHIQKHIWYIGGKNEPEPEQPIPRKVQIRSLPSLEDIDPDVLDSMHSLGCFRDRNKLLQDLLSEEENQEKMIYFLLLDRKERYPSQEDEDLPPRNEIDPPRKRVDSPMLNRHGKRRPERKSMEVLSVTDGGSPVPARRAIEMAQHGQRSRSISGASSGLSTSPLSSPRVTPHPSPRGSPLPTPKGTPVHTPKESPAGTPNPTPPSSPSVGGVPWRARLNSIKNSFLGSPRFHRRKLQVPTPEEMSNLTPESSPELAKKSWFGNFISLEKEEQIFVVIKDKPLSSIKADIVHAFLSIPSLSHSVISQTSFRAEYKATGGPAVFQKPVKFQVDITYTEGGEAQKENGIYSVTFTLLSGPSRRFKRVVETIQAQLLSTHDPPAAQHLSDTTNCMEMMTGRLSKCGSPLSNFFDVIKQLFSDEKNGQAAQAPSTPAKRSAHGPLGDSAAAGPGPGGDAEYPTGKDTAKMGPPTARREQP

[11] = target: T1, ABL1(T315I)-phosphorylated (Homo sapiens, UniProt P00519, T315I)
T1 construct: phosphorylated

[12] = target: NEK6 (Homo sapiens, UniProt Q9HC98)
Chain of NEK6 (Q9HC98 whole entry): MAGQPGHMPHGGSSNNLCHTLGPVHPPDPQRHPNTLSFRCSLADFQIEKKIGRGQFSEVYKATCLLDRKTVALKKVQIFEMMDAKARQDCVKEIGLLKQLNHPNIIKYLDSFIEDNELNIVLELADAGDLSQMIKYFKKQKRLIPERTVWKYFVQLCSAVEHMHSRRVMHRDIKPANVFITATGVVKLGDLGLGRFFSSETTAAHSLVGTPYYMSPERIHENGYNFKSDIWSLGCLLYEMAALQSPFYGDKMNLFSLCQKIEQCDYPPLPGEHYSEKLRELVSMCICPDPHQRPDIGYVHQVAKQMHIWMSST

[13] = target: NEK4 (Homo sapiens, UniProt P51957)
[14] = target: T2, ABL1(F317I)-phosphorylated (Homo sapiens, UniProt P00519, F317I)
T2 construct: phosphorylated

[15] = target: T3, JAK1(JH2domain-pseudokinase) (Homo sapiens, UniProt P23458)
T3 construct: JH2domain-pseudokinase

[16] = target: T4, RSK2(Kin.Dom.1-N-terminal) (Homo sapiens, UniProt P51812)
T4 construct: gene RPS6KA3; Kin.Dom.1-N-terminal

[17] = target: HIPK4 (Homo sapiens, UniProt Q8NE63)
Chain of HIPK4 (Q8NE63 whole entry): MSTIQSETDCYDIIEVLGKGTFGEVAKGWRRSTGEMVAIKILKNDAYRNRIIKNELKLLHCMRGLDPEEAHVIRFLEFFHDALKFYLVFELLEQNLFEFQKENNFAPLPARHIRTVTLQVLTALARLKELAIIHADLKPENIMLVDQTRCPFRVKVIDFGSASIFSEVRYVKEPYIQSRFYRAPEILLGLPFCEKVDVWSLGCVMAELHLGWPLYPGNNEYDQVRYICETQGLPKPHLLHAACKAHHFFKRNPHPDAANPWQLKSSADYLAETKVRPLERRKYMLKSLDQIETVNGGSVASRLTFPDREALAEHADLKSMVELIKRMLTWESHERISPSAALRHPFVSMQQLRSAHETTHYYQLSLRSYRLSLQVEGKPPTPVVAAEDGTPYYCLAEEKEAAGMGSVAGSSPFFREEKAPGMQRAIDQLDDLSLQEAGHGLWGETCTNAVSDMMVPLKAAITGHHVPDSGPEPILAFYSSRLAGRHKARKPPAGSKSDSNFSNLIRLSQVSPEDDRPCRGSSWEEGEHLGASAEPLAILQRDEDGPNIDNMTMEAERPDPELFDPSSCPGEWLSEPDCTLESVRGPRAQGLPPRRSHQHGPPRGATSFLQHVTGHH

[18] = target: RET (Homo sapiens, UniProt P07949)
Chain of RET (P07949 whole entry): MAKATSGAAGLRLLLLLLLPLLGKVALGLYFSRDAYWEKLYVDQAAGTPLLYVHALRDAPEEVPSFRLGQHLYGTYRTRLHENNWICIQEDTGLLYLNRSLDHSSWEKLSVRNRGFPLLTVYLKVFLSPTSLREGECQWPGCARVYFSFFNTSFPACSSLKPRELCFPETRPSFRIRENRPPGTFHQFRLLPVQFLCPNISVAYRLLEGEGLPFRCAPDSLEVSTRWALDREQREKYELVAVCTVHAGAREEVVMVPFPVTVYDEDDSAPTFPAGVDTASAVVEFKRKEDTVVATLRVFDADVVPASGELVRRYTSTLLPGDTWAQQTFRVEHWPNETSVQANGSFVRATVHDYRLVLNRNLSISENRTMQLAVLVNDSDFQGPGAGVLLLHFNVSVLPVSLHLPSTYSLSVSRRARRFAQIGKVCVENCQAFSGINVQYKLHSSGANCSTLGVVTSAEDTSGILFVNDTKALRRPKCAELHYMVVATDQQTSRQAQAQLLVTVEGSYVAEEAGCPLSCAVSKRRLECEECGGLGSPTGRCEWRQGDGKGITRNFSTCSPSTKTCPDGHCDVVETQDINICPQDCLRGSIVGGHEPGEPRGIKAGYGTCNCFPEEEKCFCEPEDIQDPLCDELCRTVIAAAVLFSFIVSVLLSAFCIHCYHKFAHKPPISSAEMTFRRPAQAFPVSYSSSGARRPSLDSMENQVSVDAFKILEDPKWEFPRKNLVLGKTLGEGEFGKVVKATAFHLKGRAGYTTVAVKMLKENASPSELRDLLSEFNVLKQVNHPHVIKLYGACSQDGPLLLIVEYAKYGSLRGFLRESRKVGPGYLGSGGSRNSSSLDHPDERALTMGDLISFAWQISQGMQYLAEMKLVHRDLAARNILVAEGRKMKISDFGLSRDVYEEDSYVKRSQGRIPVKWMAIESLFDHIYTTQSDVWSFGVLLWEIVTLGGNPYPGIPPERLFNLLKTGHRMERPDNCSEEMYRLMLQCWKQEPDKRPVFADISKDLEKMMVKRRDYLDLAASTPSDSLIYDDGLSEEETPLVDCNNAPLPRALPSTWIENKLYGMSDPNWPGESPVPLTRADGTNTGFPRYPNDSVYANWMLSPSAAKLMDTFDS

[19] = target: T5, YSK1 (Homo sapiens, UniProt O00506)
T5 construct: gene STK25

[20] = target: MAP3K1 (Homo sapiens, UniProt Q13233)
[21] = target: SLK (Homo sapiens, UniProt Q9H2G2)
Chain of SLK (Q9H2G2 whole entry): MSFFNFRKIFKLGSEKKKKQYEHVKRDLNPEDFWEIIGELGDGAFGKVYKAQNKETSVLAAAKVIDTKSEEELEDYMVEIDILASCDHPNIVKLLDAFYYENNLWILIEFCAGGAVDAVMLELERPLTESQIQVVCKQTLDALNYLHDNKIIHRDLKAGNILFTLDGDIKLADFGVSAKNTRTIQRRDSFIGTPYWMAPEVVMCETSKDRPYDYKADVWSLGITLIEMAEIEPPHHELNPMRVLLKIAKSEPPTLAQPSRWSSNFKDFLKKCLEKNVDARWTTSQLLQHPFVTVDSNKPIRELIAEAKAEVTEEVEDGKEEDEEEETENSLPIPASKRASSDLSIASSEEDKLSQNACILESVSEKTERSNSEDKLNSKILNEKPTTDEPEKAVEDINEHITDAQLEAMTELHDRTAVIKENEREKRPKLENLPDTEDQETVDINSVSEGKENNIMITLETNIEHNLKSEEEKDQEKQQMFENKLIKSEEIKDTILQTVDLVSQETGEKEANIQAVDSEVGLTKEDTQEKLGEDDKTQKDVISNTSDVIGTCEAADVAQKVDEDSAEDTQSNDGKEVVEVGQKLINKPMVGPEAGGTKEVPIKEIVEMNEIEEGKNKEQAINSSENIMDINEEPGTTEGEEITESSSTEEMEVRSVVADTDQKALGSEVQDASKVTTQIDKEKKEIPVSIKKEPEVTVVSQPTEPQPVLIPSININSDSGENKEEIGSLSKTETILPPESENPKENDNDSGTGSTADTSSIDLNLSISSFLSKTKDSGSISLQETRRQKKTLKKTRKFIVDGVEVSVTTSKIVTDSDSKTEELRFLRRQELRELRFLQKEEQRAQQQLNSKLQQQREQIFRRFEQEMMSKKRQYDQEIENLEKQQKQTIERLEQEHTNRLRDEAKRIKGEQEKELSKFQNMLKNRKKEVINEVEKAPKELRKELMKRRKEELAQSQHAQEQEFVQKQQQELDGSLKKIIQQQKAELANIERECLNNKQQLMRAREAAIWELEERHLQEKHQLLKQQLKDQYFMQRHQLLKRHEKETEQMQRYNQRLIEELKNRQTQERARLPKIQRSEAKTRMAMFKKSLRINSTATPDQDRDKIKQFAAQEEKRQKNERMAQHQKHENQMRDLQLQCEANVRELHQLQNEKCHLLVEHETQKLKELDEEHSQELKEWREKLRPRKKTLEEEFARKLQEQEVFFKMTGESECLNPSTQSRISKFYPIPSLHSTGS

[22] = target: CSNK1G1 (Homo sapiens, UniProt Q9HCP0)
Chain of CSNK1G1 (Q9HCP0 whole entry): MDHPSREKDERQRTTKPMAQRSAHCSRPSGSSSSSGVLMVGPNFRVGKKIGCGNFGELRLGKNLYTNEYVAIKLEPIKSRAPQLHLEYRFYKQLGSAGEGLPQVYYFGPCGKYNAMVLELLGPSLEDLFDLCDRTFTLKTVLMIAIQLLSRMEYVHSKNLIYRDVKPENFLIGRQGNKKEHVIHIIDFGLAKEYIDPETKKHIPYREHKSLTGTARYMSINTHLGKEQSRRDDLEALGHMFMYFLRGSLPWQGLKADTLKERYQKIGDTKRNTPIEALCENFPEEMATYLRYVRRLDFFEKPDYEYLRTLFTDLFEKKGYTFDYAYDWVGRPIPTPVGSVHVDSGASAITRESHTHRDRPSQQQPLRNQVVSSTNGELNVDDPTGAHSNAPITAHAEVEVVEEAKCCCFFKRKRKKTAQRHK

[23] = target: T6, QSK (Homo sapiens, UniProt Q9Y2K2)
T6 construct: gene SIK3

Row | SMILES | remaining binding at 10 µM [1] [%] | remaining binding at 10 µM [2] [%] | remaining binding at 10 µM [3] [%] | remaining binding at 10 µM [4] [%] | remaining binding at 10 µM [5] [%] | remaining binding at 10 µM [6] [%] | remaining binding at 10 µM [7] [%] | remaining binding at 10 µM [8] [%] | remaining binding at 10 µM [9] [%] | remaining binding at 10 µM [10] [%] | remaining binding at 10 µM [11] [%] | remaining binding at 10 µM [12] [%] | remaining binding at 10 µM [13] [%] | remaining binding at 10 µM [14] [%] | remaining binding at 10 µM [15] [%] | remaining binding at 10 µM [16] [%] | remaining binding at 10 µM [17] [%] | remaining binding at 10 µM [18] [%] | remaining binding at 10 µM [19] [%] | remaining binding at 10 µM [20] [%] | further results
1 | COc1ccc(-c2cnccc2-c2cnc(NC(=O)C(C)C)s2)c(C(F)(F)F)c1 [CRT0105446, N-{5-[3-(4-Methoxy-2-trifluoromethyl-phenyl)-pyridin-4-yl]-hiazol-2-yl}-isobutyramide] | 66 | 100 | 100 | 93 | 49 | 62 | 58 | 100 | 79 | 59 | 99 | 95 | 91 | 76 | 92 | 37 | 75 | 87 | 100 | 88 | remaining binding at 10 µM [21]: 100%; remaining binding at 10 µM [22]: 94%; remaining binding at 10 µM [23]: 100%
2 | Cc1ccc(-c2cnccc2-c2cnc(Nc3ccc(O)cc3)s2)c(Cl)c1 [CRT0105950, 4-{5-[3-(2-Chloro-4-methyl-phenyl)-pyridin-4-yl]-thiazol-2-ylamino}-phenol] | 48 | 65 | 79 | 87 | 22 | 20 | 18 | 99 | 63 | 33 | 79 | 100 | 77 | 87 | 74 | 0.1 | 16 | 1.2 | 22 | 71 | remaining binding at 10 µM [21]: 95%; remaining binding at 10 µM [22]: 82%; remaining binding at 10 µM [23]: 72%
